Target: T1, human mAChR M4 (Homo sapiens, UniProt P08173)
T1 construct: expressed in transfected cells; host or cells: CHO-K1 (American Type Culture Collection), stably expressing hM4 and Gqi5
T1 sequence (P08173 1-479): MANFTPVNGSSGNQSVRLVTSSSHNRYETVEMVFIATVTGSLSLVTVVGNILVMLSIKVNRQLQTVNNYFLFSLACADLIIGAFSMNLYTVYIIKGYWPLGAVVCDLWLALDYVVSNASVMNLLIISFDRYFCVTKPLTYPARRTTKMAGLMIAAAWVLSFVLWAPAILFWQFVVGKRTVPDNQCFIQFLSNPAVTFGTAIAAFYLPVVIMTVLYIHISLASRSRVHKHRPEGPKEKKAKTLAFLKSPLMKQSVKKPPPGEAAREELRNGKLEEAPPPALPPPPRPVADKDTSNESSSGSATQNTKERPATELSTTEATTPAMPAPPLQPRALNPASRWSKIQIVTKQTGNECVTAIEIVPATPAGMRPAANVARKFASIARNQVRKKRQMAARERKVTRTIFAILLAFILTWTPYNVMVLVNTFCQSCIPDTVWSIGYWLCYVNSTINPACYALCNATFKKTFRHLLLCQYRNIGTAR
Assay: mAChR M4 cell-based functional assay: calcium mobilization (Fluo-4, FDSS), potentiation of EC20 acetylcholine response in hM4-Gqi5 CHO-K1 cells
Details: human M4; for Emax at 30 µM: CHO-K1, % ACh maximum at 30 μM; for EC50: potentiation of EC20 acetylcholine response, calcium mobilization
Protocol: Human and rat M4 cDNAs, along with the chimeric G protein Gqi5, were transfected into Chinese hamster ovary (CHO-K1) cells purchased from the American Type Culture Collection using Lipofectamine2000. hM4-Gqi5 cells were grown in Ham's F-12 medium containing 10% heat-inactivated fetal bovine serum (FBS), 20 mM HEPES, 50 μg/mL G418 sulfate, and 500 μg/mL Hygromycin B. rM4-Gqi5 cells were grown in DMEM containing 10% heat-inactivated FBS, 20 mM HEPES, 400 μg/mL G418 sulfate, and 500 μg/mL Hygromycin B.
For high throughput measurement of agonist-evoked increases in intracellular calcium, CHO-K1 cells stably expressing muscarinic receptors were plated in growth medium lacking G418 and hygromycin at 15,000 cells/20 μL/well in Greiner 384-well black-walled, tissue culture (TC)-treated, clear-bottom plates (VWR). Cells were incubated overnight at 37° C. and 5% CO2. The next day, cells were washed using an ELX 405 (BioTek) with assay buffer; the final volume was then aspirated to 20 μL. Next, 20 μL of a […] of Fluo-4/acetoxymethyl ester (Invitrogen, Carlsbad, CA), prepared as a 2.3 mM stock in DMSO and mixed in a 1:1 ratio with 10% (w/v) Pluronic F-127 and diluted in assay buffer, was added to the wells and the cell plates were incubated for 50 min at 37° C. and 5% CO2. Dye was removed by washing with the ELX 405 and the final volume was aspirated to 20 μL. Compound master plates were formatted in an 11 point concentration-response curve (CRC) format (1:3 dilutions) in 100% DMSO with a starting concentration of 10 mM using a BRAVO liquid handler (Agilent). Test compound CRCs were then transferred to daughter plates (240 nL) using the Echo acoustic plate reformatter (Labcyte, Sunnyvale, CA) and then diluted into assay buffer (40 μL) to a 2× stock using a Thermo Fisher Combi (Thermo Fisher Scientific, Waltham, MA).
Calcium flux was measured using the Functional Drug Screening System (FDSS) 6000 or 7000 (Hamamatsu Corporation, Tokyo, Japan) as an increase in the fluorescent static ratio. Compounds were applied to cells (20 μL, 2X) using the automated system of the FDSS at 2-4 seconds into the protocol and the data were collected at 1 Hz. At 144 seconds, 10 μL of an EC20 concentration of the muscarinic receptor agonist acetylcholine was added (5×), followed by the addition of 12 μL of an […] concentration of acetylcholine at the 230 second time point (5×). Agonist activity was analyzed as a concentration-dependent increase in calcium mobilization upon compound addition. Positive allosteric modulator activity was analyzed as a concentration-dependent increase in the EC20 acetylcholine response. Antagonist activity was analyzed as a concentration-dependent decrease in the EC20 acetylcholine response. Concentration-response curves were generated using a four-parameter logistical equation in XLFit curve fitting software (IDBS, Bridgewater, NJ) for Excel (Microsoft, Redmond, WA) or Prism (GraphPad Software, Inc., San Diego, CA).
Compounds were synthesized as described above. Activity (EC50 and Emax) was determined in the mAChR M4 cell-based functional assay as described above and the data are shown in Table 4. The compound number corresponds to the compound numbers used in Tables 1-3.

Structure (SMILES)	Emax at 30 µM	EC50	Emax (%)* (% ACh maximum at 30 μM)
Cc1c(N2CCc3ncc(N4CCOC4=O)cc3C2)nn2c(=O)ccnc2c1C [Compound 2-144, 3-(6-(8,9-dimethyl-4-oxo-4H-pyrimido[1,2-b]pyridazin-7-yl)-5,6,7,8-tetrahydro-1,6-naphthyridin-3-yl)oxazolidin-2-one]	98%	1.58 µM	
Cc1cc(=O)n2nc(N3CCc4ncc(-c5ccc(N(C)C)nc5)cc4C3)c(C)c(C)c2n1 [Compound 1-121, 7-(3-(6-(dimethylamino)pyridin-3-yl)-7,8-dihydro-1,6-naphthyridin-6(5H)-yl)-2,8,9-trimethyl-4H-pyrimido[1,2-b]pyridazin-4-one]	83%	0.722 µM	
Cc1cc(=O)n2nc(N3CCc4ncc(-c5ccc(F)cc5F)cc4C3)c(C)cc2n1 [Compound 1-257, 7-(3-(2,4-difluorophenyl)-7,8-dihydro-1,6-naphthyridin-6(5H)-yl)-2,8-dimethyl-4H-pyrimido[1,2-b]pyridazin-4-one]	76%	0.339 µM	
Cc1cc(=O)n2nc(N3CCc4ncc(N5CC6CCC(C5)O6)cc4C3)c(C)c(C)c2n1 [Compound 2-43, 7-(3-(8-oxa-3-azabicyclo[3.2.1]octan-3-yl)-7,8-dihydro-1,6-naphthyridin-6(5H)-yl)-2,8,9-trimethyl-4H-pyrimido[1,2-b]pyridazin-4-one]	76%	0.31 µM	
COCc1cc(=O)n2nc(N3CCc4ncc(-c5cc(F)ccn5)cc4C3)c(C)cc2n1 [Compound 1-383, 7-(3-(4-fluoropyridin-2-yl)-7,8-dihydro-1,6-naphthyridin-6(5H)-yl)-2-(methoxymethyl)-8-methyl-4H-pyrimido[1,2-b] pyridazin-4-one]	83%	0.647 µM	
Cc1c(N2CCc3ncc(C(F)(F)F)cc3C2C)nn2c(=O)ccnc2c1C (single isomer, unassigned) [Compound 1-386, 8,9-dimethyl-7-(5-methyl-3-(trifluoromethyl)-7,8-dihydro-1,6-naphthyridin-6(5H)-yl)-4H-pyrimido[1,2-b] pyridazin-4-one]		0.95 µM	80%
Cc1cc(=O)n2nc(N3CCc4ncc(-c5cnn(CCN6CCOCC6)c5)cc4C3)c(C)c(C)c2n1 [Compound 1-178, 2,8,9-trimethyl-7-(3-(1-(2-morpholinoethyl)-1H-pyrazol-4-yl)-7,8-dihydro-1,6-naphthyridin-6(5H)-yl)-4H-pyrimido[1,2-b]pyridazin-4-one]	74%	2.51 µM	
Cc1cc2nccc(=O)n2nc1N1CCc2ncc(-c3cnn(C)c3)cc2C1 [Compound 1-6, 8-methyl-7-(3-(1-methyl-1H-pyrazol-4-yl)-7,8-dihydro-1,6-naphthyridin-6(5H)-yl)-4H-pyrimido[1,2-b]pyridazin-4-one]	83%	0.736 µM	
Cc1ccnnc1-c1cnc2c(c1)CN(c1nn3c(=O)ccnc3cc1C)CC2 [Compound 1-356, 8-methyl-7-(3-(4-methylpyridazin-3-yl)-7,8-dihydro-1,6-naphthyridin-6(5H)-yl)-4H-pyrimido[1,2-b]pyridazin-4-one]	70%		
Cc1cc(=O)n2nc(N3CCc4ncc(-c5cccc(F)c5)cc4C3)c(C)c(C)c2n1 [Compound 1-203, 7-(3-(3-fluorophenyl)-7,8-dihydro-1,6-naphthyridin-6(5H)-yl)-2,8,9-trimethyl-4H-pyrimido[1,2-b]pyridazin-4-one]	80%	0.417 µM	
COCc1cc(=O)n2nc(N3CCc4ncc(-c5ccncc5)cc4C3)c(C)cc2n1 [Compound 1-362, 2-(methoxymethyl)-8-methyl-7-(3-(pyridin-4-yl)-7,8-dihydro-1,6-naphthyridin-6(5H)-yl)-4H-pyrimido[1,2-b] pyridazin-4-one]	78%	0.337 µM	
Cc1cc2nccc(=O)n2nc1N1CCc2ncc(N3CCOc4cc(F)ccc43)cc2C1 [Compound 2-56, 7-(3-(7-fluoro-2,3-dihydro-4H-benzo[b][1,4]oxazin-4-yl)-7,8-dihydro-1,6-naphthyridin-6(5H)-yl)-8-methyl-4H-pyrimido[1,2-b]pyridazin-4-one]	98%	0.014 µM	
Cc1cc(=O)n2nc(N3CCc4ncc(-c5cccnc5)cc4C3)c(C)c(C)c2n1 [Compound 1-129, 2,8,9-trimethyl-7-(3-(pyridin-3-yl)-7,8-dihydro-1,6-naphthyridin-6(5H)-yl)-4H-pyrimido[1,2-b]pyridazin-4-one]	91%	1.62 µM	
Cc1nc2c(C)c(C)c(N3CCc4ncc(N5CCCn6nccc65)cc4C3)nn2c(=O)c1F [Compound 2-12, 7-(3-(6,7-dihydropyrazolo[1,5-a]pyrimidin-4(5H)-yl)-7,8-dihydro-1,6-naphthyridin-6(5H)-yl)-3-fluoro-2,8,9-trimethyl-4H-pyrimido[1,2-b]pyridazin-4-one]	128%	0.039 µM	
Cc1cc(=O)n2nc(N3CCc4ncc(-c5cc(F)ccc5C)cc4C3)c(C)c(C)c2n1 [Compound 1-138, 7-(3-(5-fluoro-2-methylphenyl)-7,8-dihydro-1,6-naphthyridin-6(5H)-yl)-2,8,9-trimethyl-4H-pyrimido[1,2-b]pyridazin-4-one]	87%	0.19 µM	
Cc1cc2nccc(=O)n2nc1N1CCc2ncc(NC(=O)C3(C)CCC3)cc2C1 [Compound 2-121, 1-methyl-N-(6-(8-methyl-4-oxo-4H-pyrimido[1,2-b]pyridazin-7-yl)-5,6,7,8-tetrahydro-1,6-naphthyridin-3-yl)cyclobutane-1-carboxamide]	66%		
Cc1cc(=O)n2nc(N3CCc4ncc(N5CC6CC5CO6)cc4C3)c(C)c(C)c2n1 (centres unmarked) [Compound 2-37, 7-(3-(2-oxa-5-azabicyclo[2.2.1]heptan-5-yl)-7,8-dihydro-1,6-naphthyridin-6(5H)-yl)-2,8,9-trimethyl-4H-pyrimido[1,2-b]pyridazin-4-one]	81%	1.34 µM	
Cc1c(N2CCc3ncc(-c4ccccc4F)cc3C2)nn2c(=O)ccnc2c1C [Compound 1-343, 7-(3-(2-fluorophenyl)-7,8-dihydro-1,6-naphthyridin-6(5H)-yl)-8,9-dimethyl-4H-pyrimido[1,2-b]pyridazin-4-one]	77%	0.4 µM	
COCc1cc(=O)n2nc(N3CCc4ncc(-c5cc(F)ccc5F)cc4C3)c(C)cc2n1 [Compound 1-336, 7-(3-(2,5-difluorophenyl)-7,8-dihydro-1,6-naphthyridin-6(5H)-yl)-2-(methoxymethyl)-8-methyl-4H-pyrimido[1,2-b] pyridazin-4-one]	66%	0.357 µM	
Cc1cscc1-c1cnc2c(c1)CN(c1nn3c(=O)ccnc3cc1C)CC2 [Compound 1-394, 8-methyl-7-(3-(4-methylthiophen-3-yl)-7,8-dihydro-1,6-naphthyridin-6(5H)-yl)-4H-pyrimido[1,2-b]pyridazin-4-one]	86%	0.074 µM	

From US20250101041A1, “POSITIVE ALLOSTERIC MODULATORS OF THE MUSCARINIC ACETYLCHOLINE RECEPTOR M4” (Vanderbilt University, priority 2022, published 2025)
